Test: Human HepG2 cell viability assay in 384 well format
Assay type: toxicity, cell-based
Design: dose 125 nL, time 70.5 hour; concentration not given beside the values
Conditions: HepG2 cells, read-out: Inhibition

| Compound | cytotoxicity at 70.5 h [%] |
| --- | --- |
| COc1ccc(C2CNCCN2C(=O)c2cccc3cccnc23)cc1 (configuration not stated) | 12.4 |
| COc1ccc(C2CNCCN2C(=O)c2nccc3ccccc23)cc1 (configuration not stated) | 5.97 |
| COc1ccc(C2CNCCN2C(=O)c2cccc3ncccc23)cc1 (configuration not stated) | -3.21 |
| CNc1ncc(C(=O)N2CCOC(C(=O)N3CCCCCC3)C2)cn1 (configuration not stated) | -2.75 |
| COCCC(=O)N1C[C@@H](c2ccc(F)c(F)c2)[C@@]2(CCCC(=O)N2)C1 | -1.65 |
| CNc1nc(C2CCCN(C(=O)C3CCCCC3)C2)nc2c1CNCC2 (configuration not stated) | -3.63 |
| CNc1nccnc1C1CN(C(=O)c2c[nH]cn2)CCO1 (configuration not stated) | 3.73 |
| c1ccc2ncc(CC3CNCCOC3)cc2c1 (configuration not stated) | -0.7 |
| CN1CCCC(c2cccc(-c3cccc(C(F)(F)F)c3)n2)C1 (configuration not stated) | -2.8 |
| CC(=O)N1CCCC1c1nc(C)c2c(n1)N(Cc1ccccn1)CCC2 (configuration not stated) | -8.03 |
| CNC(=O)C1CN(Cc2cc(C)on2)CCN(C(C)=O)C1 (configuration not stated) | -9.11 |
| CN1CCCC1c1cncc(C(=O)NCCN2CCCCC2)n1 (configuration not stated) | -8.33 |
| CC(C)c1nnc(CCC(=O)N2CCCC(c3cnccn3)C2)o1 (configuration not stated) | -9.44 |
| CNC(=O)c1cnc(C)nc1CCNC(=O)CCc1ccccc1 | 7.59 |
| NC(=O)c1cnc(NC2CC2)nc1CCNC(=O)Cc1ccccc1 | -5.85 |
| COc1ccc(F)cc1C(=O)N(C)[C@@H]1CC[C@@H](O)[C@@H]1O | -9.84 |
| COCc1ccc(OC)c(CNC2CCCNC2=O)c1 (configuration not stated) | -8.49 |
| CC(=O)N1CCC(Cc2cnc(Nc3cc(C)on3)cn2)CC1 | -4.74 |
| Cc1ncsc1C(=O)N1CCC(c2ncncc2-c2ccnc(N)c2)C1 (configuration not stated) | -7 |
| COc1ccccc1NC(=O)C1(c2ccccc2)CCOCC1 | -6.73 |
| CCNC(=O)c1cccc(CNC(=O)c2cnc(C(C)(C)C)s2)c1 | 2.86 |
| Cc1ccc(O)c(CNc2cccc(OCCF)c2)n1 | -5.5 |
| NC(=O)N1CCC(NCc2cc(Br)ccc2Cl)CC1 | -1.95 |
| Cc1ccc(OCC(=O)Nc2cc(C(=O)O)cc(S(C)(=O)=O)c2)cc1C | 0.676 |

| Compound | cytotoxicity at 70.5 h [%] |
| --- | --- |
| NC(=O)CN1CCC(NCc2cc(C(F)(F)F)ccc2Cl)CC1 | -4.69 |
| Cc1cc(N2CCCC(c3nncn3C3CC3)C2)ncn1 (configuration not stated) | -2.44 |
| Cc1ccc(CN(CCN(C)C)C(=O)Cc2cn3ccccc3n2)o1 | -3.69 |
| CN(Cc1cnn(C)c1)CC(O)c1ccc2c(c1)OCO2 (configuration not stated) | -2.83 |
| CCC(=O)N1CCC(NCc2cc(C(F)(F)F)ccc2Cl)C1 (configuration not stated) | -4.4 |
| COc1cccc(C(C)N2CCN(S(=O)(=O)CCCF)CC2)c1 (configuration not stated) | 34.9 |
| O=C(Nc1nncs1)c1ccc(O)nc1 | 0.228 |
| O=C(CN(Cc1cccs1)C1CCS(=O)(=O)C1)NCC1CCCCC1 (configuration not stated) | -1.81 |
| COc1c(F)cc(NCC(=O)NC(C)(C#N)C2CC2)cc1F (configuration not stated) | -0.61 |
| CC(c1cccc(Cl)c1)N1CCN(S(C)(=O)=O)CC1 (configuration not stated) | -1.61 |
| Cn1cc(CNC(=O)Nc2ccc(S(=O)(=O)C(F)F)cc2)cn1 | 0.531 |
| O=C1NCCCCC1SCc1coc(-c2ccccc2)n1 (configuration not stated) | -2.46 |
| CC(C#N)CNC(=O)Nc1ccc(Br)cc1 (configuration not stated) | 2.54 |
| CC(=O)NC(Cc1c[nH]c2cc(F)ccc12)C(=O)Nc1nncs1 (configuration not stated) | -2.58 |
| CC(=O)NC(Cc1c[nH]c2cc(F)ccc12)C(=O)Nc1cnn(C)c1 (configuration not stated) | 1.79 |
| CCS(=O)(=O)CC(=O)Nc1ccc2oc(C3CC3)nc2c1 | -0.903 |
| Cc1nc(C2CCN(S(=O)(=O)c3ccc(Cl)cc3)CC2)n[nH]1 | 1.07 |
| Cc1nc(C2CCN(S(=O)(=O)c3ccc4c(c3)CCO4)CC2)n[nH]1 | 0.662 |
| CN(C)Cc1ccnc(NS(=O)(=O)CCc2ccccc2)c1 | 3.89 |
| O=C(Cc1cccc(F)c1F)N1CCOC(c2cccc(O)c2)C1 (configuration not stated) | -2.65 |
| O=C(c1ccco1)N(c1ccc(F)cn1)C1CCOCC1 | 26.4 |
| CC(NS(C)(=O)=O)C(=O)Nc1ccc2oc(C3CC3)nc2c1 (configuration not stated) | -3.24 |
| CS(=O)(=O)c1ccc(NCc2ccc(F)cc2)cn1 | -6.37 |
| O=C1NCCCCC1SCc1coc(-c2ccc(F)cc2)n1 (configuration not stated) | 20.1 |

| Compound | cytotoxicity at 70.5 h [%] |
| --- | --- |
| O=C(c1ccncc1)N1CCCN(Cc2nnc(C3CC3)o2)CC1 | -2.96 |
| CCOC(C)c1nc(COc2nc(C)no2)cs1 (configuration not stated) | -3.02 |
| COc1cccc(C(C)N2CCN(S(=O)(=O)c3ccccc3)CC2)c1 (configuration not stated) | -2.4 |
| O=C(C1CCCS1)N1CCOc2cccc(F)c21 (configuration not stated) | -3.7 |
| O=C(C1CCC1)N1CCOc2cccc(F)c21 | -9.1 |
| CCC1CCCN(S(=O)(=O)c2cnn(C)c2)C1 (configuration not stated) | -0.41 |
| COc1cccc(C(=O)Nc2ccc(OCCC(N)=O)cc2)c1OC | -5.04 |
| CCOC(=O)NCC(=O)Nc1nc2ccccc2n1C(C)(C)C | 5.06 |
| Cc1ccc(C(=O)NCCS(=O)(=O)Cc2ccccc2)c(=O)[nH]1 | -9.89 |
| COc1ccccc1C1(CNc2cn[nH]c(=O)c2Cl)CC1 | -12.7 |
| COc1ccc(C)cc1C1(CNc2cncc(Cl)n2)CCOCC1 | -8.23 |
| COc1ccc(F)cc1Cn1nc(C(N)=O)ccc1=O | 6.09 |
| Cc1nc(C)n(CC2CCCN(c3ccnc(-c4ccccc4)n3)C2)n1 (configuration not stated) | -10.2 |
| CCn1nnnc1-c1cccc(NC(=O)COC2CCCC2)c1 | 6.8 |
| CCn1nnnc1-c1cccc(NC(=O)CCc2cnn(C)c2)c1 | -2.12 |
| NS(=O)(=O)CCNC(=O)CCc1cc(Br)cs1 | 1.86 |
| Cc1cc(C)nc(NC2CCc3nc(C)nn3C2)n1 (configuration not stated) | -5.94 |
| Cc1cc(N(C)C)nc(NC2CCc3nc(C)nn3C2)n1 (configuration not stated) | 6.17 |
| Cc1ccc(C)c(C(O)Cn2cc(Cl)c(=O)[nH]c2=O)c1 (configuration not stated) | 13.1 |
| NC(=O)Nc1cccc(F)c1C(=O)NC1CCCC1 | -3.68 |
| CC(C)(C)c1ccc2c(c1)CCN2C(=O)c1[nH]c(=O)[nH]c(=O)c1N | -6.44 |
| CCOCc1ccc(NCc2cnc(N3CCN(C)CC3)nc2)cc1 | -3.75 |
| CCOc1ccc(NCc2cnc(N3CCN(C)CC3)nc2)cn1 | -1.43 |
| Cn1cc(S(=O)(=O)N2CCCC(Cn3cncn3)C2)cn1 (configuration not stated) | -2.09 |

| Compound | cytotoxicity at 70.5 h [%] |
| --- | --- |
| Cc1ccc(F)cc1C(=O)NCc1ccc(C(=O)O)o1 | 7.02 |
| CCOc1ccc(NC(=O)c2cccc(OC)c2OC)cc1 | -1.48 |
| CC(OCC1CC1)C(=O)NCc1cccc(CN2CCN(C)CC2)c1 (configuration not stated) | 5.66 |
| O=C(COC1CCCCC1)Nc1ccn(CCc2ccncc2)n1 | -7.83 |
| CCN(Cc1ccc(CN(C)C)cc1)C(=O)c1ccncc1O | -11.2 |
| CC1CCCCN1C(=O)Cn1cnc(C#N)n1 (configuration not stated) | -6.77 |
| COc1cc(F)ccc1NC(=O)NCCNC(=O)OC(C)(C)C | -14 |
| O=C(NCCCn1cccn1)C1COCC(=O)N1Cc1ccccc1 (configuration not stated) | -0.531 |
| CN(Cc1ccc2c(c1)OCO2)Cc1cscn1 | 10.1 |
| COCc1c(Br)cccc1NC(=O)CC(F)(F)F | -13.2 |
| CN(Cc1cscn1)Cc1cc2c(cc1Br)OCO2 | -4.04 |
| Cc1cc(C)n(-c2cccc(NC(=O)N3CCC[C@@H]3CO)c2)n1 | -16 |
| Cc1ccc(C)c(CC(=O)NC2CCCS(=O)(=O)C2)c1 (configuration not stated) | 6.95 |
| Cc1ccc(C2CSCCN2CCS(C)(=O)=O)cc1 (configuration not stated) | -12.2 |
| Cc1noc(C)c1C(C)NC(=O)N1CCC(NC(=O)c2ccsc2)CC1 (configuration not stated) | -6.79 |
| C[C@@H]1CN(Cc2ccccc2F)CC(C(N)=O)O1 (some centres not stated) | -14.1 |
| Cc1oc(CNC(=O)Cc2ccc3ccccc3c2)cc1C(=O)O | 5.89 |
| CC(c1nc(C2CC2)no1)N1CCN(CCc2ccncc2)CC1 (configuration not stated) | -12.6 |
| CC(C)c1noc(C(C)N2CCN(CCc3ccncc3)CC2)n1 (configuration not stated) | -16.3 |
| COC(=O)CCN(CC1CCCO1)C(=O)CCc1ccc(OC)cc1 (configuration not stated) | -7.89 |
| CCOc1ccc(CC(=O)N(CCC(=O)OC)CC2CCCO2)cc1 (configuration not stated) | -14.3 |
| C[C@@H]1CN(Cc2ccc(-c3ccncc3)cc2F)CC(C(N)=O)O1 (some centres not stated) | -0.906 |
| CC(O)(CNc1ccc(Cl)c(C#N)n1)c1ccccc1 (configuration not stated) | 13.8 |
| CCOc1ncccc1CNS(=O)(=O)c1ccc2c(c1)CCC2 | 4.98 |

| Compound | cytotoxicity at 70.5 h [%] |
| --- | --- |
| CCOc1ncccc1CNS(=O)(=O)c1ccc2c(c1)CCO2 | -2.87 |
| CCOc1ncccc1CNS(=O)(=O)c1ccc2c(c1)CCCC(=O)N2 | -4.49 |
| CCn1ccnc1CN1CCN(C(C)C(=O)NCC(F)(F)F)CC1 (configuration not stated) | 10 |
| CN1C(=O)CCc2cc(NS(=O)(=O)Cc3cccc(F)c3)ccc21 | -8.13 |
| CCN1CC(COC(=O)c2ccc(Br)cc2F)CC1=O (configuration not stated) | -6.68 |
| CC(Nc1ccc2c(c1)CCC2)c1nc(C2CC2)no1 (configuration not stated) | -3.74 |
| CCS(=O)(=O)CCN1CCN(C2CCC(C(C)C)CC2)CC1 (configuration not stated) | 11.5 |
| O=C(NCC1(c2ccc(F)cc2)CCCC1)N1CCOC(CO)C1 (configuration not stated) | 2.92 |
| CC(C)C1CCC(N2CCN(CCS(C)(=O)=O)CC2)CC1 (configuration not stated) | -4.3 |
| CC(C)C1CCC(N2CCN(CCCS(C)(=O)=O)CC2)CC1 (configuration not stated) | -3.77 |
| CS(=O)(=O)CCNC(=O)N1CC2(CCCC2)c2ccccc21 | 0.304 |
| O=C1CC2(CCSC2)C(=O)N1Cc1coc(-c2cccc(F)c2)n1 (configuration not stated) | -2.41 |
| O=C1CC2(CCSC2)C(=O)N1Cc1coc(-c2ccccc2)n1 (configuration not stated) | 2.52 |
| Cc1ocnc1C(=O)Nc1ccc(-c2nnc(N(C)C)o2)cc1 | -3.15 |
| NC(=O)c1ccc(NC(=O)c2ccncc2Cl)cn1 | -4.51 |
| CCc1cnccc1C(=O)Nc1ccc(C(N)=O)nc1 | -4.18 |
| Cc1cc(Br)ccc1CNC(=O)C1(O)CCSCC1 | 9.16 |
| Cc1csc(N(C)C(=O)C2CC(=O)N(c3ccccc3Cl)C2)n1 (configuration not stated) | 4.48 |
| CN(C(=O)C1CC(=O)N(CCc2ccccc2)C1)c1nccs1 (configuration not stated) | 16.6 |
| CC(Cn1cccn1)NC(=O)C1=Cc2ccccc2OC1 (configuration not stated) | -4.64 |
| CCN(CC)C(=O)CN1CCc2nc(C3CCNCC3)nc(NC)c2C1 | -4.13 |

— ChEMBL document CHEMBL3507680, “University of Dundee, Gates Library screen for HepG2 cell viability”
